For experiment [1], the target named is T1, Serine/threonine-protein kinase TBK1 (Homo sapiens) (UniProt Q9UHD2).
T1 sequence (whole entry): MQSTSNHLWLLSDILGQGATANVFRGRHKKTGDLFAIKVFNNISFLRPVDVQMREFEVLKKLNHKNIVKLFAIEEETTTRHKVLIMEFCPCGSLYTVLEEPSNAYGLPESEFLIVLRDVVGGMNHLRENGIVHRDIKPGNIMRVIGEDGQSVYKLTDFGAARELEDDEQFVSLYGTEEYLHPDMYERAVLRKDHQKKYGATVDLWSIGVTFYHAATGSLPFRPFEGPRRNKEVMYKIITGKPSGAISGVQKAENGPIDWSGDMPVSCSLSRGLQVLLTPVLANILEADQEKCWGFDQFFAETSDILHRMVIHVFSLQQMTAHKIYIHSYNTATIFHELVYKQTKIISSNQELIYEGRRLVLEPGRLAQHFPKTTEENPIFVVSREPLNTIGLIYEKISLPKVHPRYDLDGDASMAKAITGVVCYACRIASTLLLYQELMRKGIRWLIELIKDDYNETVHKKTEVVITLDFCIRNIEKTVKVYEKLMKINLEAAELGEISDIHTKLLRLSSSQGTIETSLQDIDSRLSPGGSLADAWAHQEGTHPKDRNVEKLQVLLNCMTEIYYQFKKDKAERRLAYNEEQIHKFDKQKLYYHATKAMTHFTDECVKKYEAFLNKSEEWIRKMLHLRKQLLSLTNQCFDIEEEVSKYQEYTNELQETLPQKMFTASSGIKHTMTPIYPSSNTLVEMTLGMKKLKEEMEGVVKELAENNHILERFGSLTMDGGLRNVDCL
Conditions: at 1 µM.

In experiment [2] the target is T2, Inhibitor of nuclear factor kappa-B kinase subunit alpha (Homo sapiens) (UniProt O15111).
T2 sequence (whole entry): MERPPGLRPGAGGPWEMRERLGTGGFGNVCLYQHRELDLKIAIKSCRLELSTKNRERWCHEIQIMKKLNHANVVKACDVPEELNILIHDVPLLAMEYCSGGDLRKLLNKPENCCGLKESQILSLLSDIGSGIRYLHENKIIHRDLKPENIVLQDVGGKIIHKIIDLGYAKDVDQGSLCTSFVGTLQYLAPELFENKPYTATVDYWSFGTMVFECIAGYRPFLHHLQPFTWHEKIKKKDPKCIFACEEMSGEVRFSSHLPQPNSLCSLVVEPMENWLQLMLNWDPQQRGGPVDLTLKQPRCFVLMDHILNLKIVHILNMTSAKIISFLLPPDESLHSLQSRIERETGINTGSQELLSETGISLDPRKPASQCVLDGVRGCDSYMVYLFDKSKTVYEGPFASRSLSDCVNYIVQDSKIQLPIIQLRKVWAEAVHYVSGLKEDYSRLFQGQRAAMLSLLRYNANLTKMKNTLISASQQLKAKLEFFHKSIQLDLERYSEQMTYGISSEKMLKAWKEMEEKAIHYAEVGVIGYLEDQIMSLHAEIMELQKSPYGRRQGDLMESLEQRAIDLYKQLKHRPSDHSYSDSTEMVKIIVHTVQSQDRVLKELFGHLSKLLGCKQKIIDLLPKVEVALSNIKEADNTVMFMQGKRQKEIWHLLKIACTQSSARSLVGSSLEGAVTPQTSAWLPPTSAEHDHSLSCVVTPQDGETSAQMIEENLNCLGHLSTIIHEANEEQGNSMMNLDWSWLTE
Conditions: at 1 µM.

Experiment [3] deals with T3, Inhibitor of nuclear factor kappa-B kinase subunit beta (Homo sapiens) (UniProt O14920).
T3 sequence (whole entry): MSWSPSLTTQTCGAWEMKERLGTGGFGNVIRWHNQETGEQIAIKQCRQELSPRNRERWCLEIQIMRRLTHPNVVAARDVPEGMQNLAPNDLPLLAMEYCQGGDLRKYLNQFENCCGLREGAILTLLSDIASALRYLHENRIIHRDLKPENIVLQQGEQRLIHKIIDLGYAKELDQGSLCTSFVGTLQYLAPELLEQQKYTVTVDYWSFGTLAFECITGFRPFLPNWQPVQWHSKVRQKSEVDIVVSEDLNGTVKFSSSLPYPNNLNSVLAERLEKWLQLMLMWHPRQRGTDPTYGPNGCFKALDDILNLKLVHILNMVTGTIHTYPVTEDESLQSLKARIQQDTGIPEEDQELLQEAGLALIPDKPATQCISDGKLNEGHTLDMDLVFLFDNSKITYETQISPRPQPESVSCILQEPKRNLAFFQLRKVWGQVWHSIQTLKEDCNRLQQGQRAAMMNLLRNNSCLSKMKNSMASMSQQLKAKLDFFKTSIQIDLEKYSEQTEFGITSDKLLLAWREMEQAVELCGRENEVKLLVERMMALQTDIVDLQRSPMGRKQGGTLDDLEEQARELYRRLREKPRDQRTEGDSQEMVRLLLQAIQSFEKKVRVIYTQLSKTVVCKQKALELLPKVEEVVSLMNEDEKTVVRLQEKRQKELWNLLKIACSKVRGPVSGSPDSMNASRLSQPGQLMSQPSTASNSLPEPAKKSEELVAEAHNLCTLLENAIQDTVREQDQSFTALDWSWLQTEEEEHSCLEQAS
To be noted: at 1 µM.

Experiment [4] addresses T4, Inhibitor of nuclear factor kappa-B kinase subunit epsilon (Homo sapiens) (UniProt Q14164).
T4 sequence (whole entry): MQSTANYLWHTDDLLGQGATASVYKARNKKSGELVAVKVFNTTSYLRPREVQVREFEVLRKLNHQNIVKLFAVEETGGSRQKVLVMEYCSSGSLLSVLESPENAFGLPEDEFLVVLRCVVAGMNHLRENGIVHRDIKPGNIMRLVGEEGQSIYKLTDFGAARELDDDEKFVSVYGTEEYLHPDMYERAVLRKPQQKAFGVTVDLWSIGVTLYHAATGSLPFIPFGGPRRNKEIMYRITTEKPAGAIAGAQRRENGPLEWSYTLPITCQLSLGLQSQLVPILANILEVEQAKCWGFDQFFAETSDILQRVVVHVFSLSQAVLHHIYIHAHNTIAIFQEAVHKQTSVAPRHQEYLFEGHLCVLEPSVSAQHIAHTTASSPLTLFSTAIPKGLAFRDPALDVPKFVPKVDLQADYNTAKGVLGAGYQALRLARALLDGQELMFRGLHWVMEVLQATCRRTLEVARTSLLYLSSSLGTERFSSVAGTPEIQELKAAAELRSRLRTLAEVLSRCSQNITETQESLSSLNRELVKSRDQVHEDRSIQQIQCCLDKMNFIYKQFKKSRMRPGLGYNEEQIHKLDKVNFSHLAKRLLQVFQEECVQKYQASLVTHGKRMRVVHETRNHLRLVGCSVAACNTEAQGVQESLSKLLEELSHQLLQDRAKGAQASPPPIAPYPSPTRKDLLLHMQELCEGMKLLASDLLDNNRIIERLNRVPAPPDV
Conditions: at 1 µM.

Experiment [5] has as its target T5, Tyrosine-protein kinase Mer (Homo sapiens) (UniProt Q12866).
T5 sequence (whole entry): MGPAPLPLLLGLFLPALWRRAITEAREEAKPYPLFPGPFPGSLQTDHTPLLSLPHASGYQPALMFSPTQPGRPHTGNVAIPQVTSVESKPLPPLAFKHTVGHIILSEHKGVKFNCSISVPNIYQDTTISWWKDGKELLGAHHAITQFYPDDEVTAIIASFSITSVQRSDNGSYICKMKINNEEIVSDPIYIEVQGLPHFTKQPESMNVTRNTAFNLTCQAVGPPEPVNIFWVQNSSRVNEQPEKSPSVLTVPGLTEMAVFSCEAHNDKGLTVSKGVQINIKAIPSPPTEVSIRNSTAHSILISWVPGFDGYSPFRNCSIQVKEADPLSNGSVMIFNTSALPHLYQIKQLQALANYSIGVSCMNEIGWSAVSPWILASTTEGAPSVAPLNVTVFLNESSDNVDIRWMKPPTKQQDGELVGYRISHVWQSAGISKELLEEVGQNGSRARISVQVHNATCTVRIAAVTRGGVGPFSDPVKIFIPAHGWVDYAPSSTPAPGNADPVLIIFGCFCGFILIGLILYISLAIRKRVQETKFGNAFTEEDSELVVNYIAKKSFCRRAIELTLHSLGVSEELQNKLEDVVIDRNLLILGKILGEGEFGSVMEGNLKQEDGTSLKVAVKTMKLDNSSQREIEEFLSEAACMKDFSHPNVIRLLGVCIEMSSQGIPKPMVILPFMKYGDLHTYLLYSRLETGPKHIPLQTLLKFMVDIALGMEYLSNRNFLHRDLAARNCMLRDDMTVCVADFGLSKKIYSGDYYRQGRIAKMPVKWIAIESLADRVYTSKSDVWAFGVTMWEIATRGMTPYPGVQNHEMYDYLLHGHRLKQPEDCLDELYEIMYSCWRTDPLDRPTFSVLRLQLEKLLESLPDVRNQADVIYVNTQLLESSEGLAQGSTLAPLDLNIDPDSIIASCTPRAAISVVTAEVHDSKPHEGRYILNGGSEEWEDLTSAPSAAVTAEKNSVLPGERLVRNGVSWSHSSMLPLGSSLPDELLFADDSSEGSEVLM
To be noted: at 10 µM.

Molecules are shown by their SMILES. Several values for one entry are separate records, joined by “and”; a condition that tells them apart may be missing. Equal values may be shown once.

One may read the inhibition as the change of the read-out against control, counted positive when it falls. Consider `[O-][S+]1CCN(Cc2ccc(-c3ccc4ncnc(Nc5ccc(OCc6ccccc6)c(F)c5)c4c3)o2)CC1`, for which the inhibition was 5% and 2% in experiment [1]; 5% in experiment [2]; -4% and -10% in experiment [3]; 1% in experiment [4].
`COc1cccc(Nc2nccc(-c3cnn4ncccc34)n2)c1`: the inhibition in experiment [1] was 24% and 31%; in experiment [2], 0% and 2%; in experiment [4], 11% and 20%; in experiment [5], 98%.
Take `Fc1cccc(COc2ccc(Nc3ncnc4cc(-c5ccc[nH]5)sc34)cc2Cl)c1`: the inhibition was 0% and -4% in experiment [1]; 60% and 64% in experiment [2]; 3% and 2% in experiment [3]; -1% in experiment [4].
As for `CCS(=O)(=O)c1ccc(OC)c(Nc2ncc(-c3cccc(C(C)=O)c3)o2)c1`, the inhibition in experiment [1] was 7% and 5%; in experiment [2], -1%; in experiment [4], 1%; in experiment [5] it was 65%.
As to `C[C@@H](Oc1cc(-n2cnc3ccc(OCC4CCN(C)CC4)cc32)sc1C(N)=O)c1ccccc1Cl`, the inhibition is 6% and 8% in experiment [1]; -10% and 3% in experiment [2]; 3% in experiment [4]; 55% in experiment [5].
With `Cc1ccc(NC(=O)CC2CC2)cc1-c1ccc(C(=O)NCC2CC2)cc1`, the inhibition in experiment [1] was -1% and 1%; in experiment [2], 1% and 0%; in experiment [3], -2% and -1%; in experiment [4], 0%.
On to `c1cc(-c2cnn3nc(N4CCOCC4)ccc23)nc(NC2CC2)n1`, for which the inhibition is 5% and 6% in experiment [1]; -2% and -3% in experiment [2]; 5% and 6% in experiment [4]; -4% in experiment [5].
Regarding `Fc1ccc(-c2nn3ncccc3c2-c2ccnc(Nc3ccc4c(c3)OCCO4)n2)cc1`, the inhibition was 4% and -2% in experiment [1]; -2% and -4% in experiment [3]; 12% and 9% in experiment [4].
Take `N#Cc1cccc(Nc2nccc(-c3cnn4ncccc34)n2)c1`: the inhibition in experiment [1] is 37% and 39%; in experiment [2], -9%; in experiment [3] it was -4% and 0%; in experiment [4], 35% and 37%.
On to `O=C(Nc1n[nH]c2nc(-c3ccco3)ccc12)C1CC1`, for which the inhibition in experiment [1] was 4% and 3%; in experiment [2], 7% and 6%; in experiment [3] it was -6%; in experiment [4], 0%.
For the compound `NS(=O)(=O)c1ccc(N/C=C2\C(=O)Nc3ccc4ncsc4c32)cc1`, the inhibition in experiment [1] is 85% and 86%; in experiment [2], -3% and -2%; in experiment [3] it was -4% and -5%; in experiment [4] it was -8% and -9%.
Consider `Nc1ncnc2occ(-c3ccc(NC(=O)Nc4cc(C(F)(F)F)ccc4F)cc3)c12`, for which the inhibition in experiment [1] is -1% (2×) and 2% and 1%; in experiment [2] it was 2% [middle of 4 runs]; in experiment [3] it was -7% and -4%; in experiment [4], 12% [middle of 4 runs].
`COC(=O)Nc1nc2ccc(Oc3ccc(NC(=O)Nc4cc(C(F)(F)F)ccc4F)cc3)cc2s1`: the inhibition was -5% and -3% in experiment [1]; 5% and 4% in experiment [2]; -4% and -8% in experiment [3]; -4% and -6% in experiment [4].
For the compound `CC(C)c1ccc2c(c1)NC(=O)/C2=N/Nc1ccc(S(N)(=O)=O)cc1`, the inhibition was -5% and -1% in experiment [1]; 5% and 4% in experiment [2]; 0% in experiment [4]; -10% in experiment [5].
In the case of `Nc1nccc(-c2c(-c3ccc(F)cc3)ncn2C2CCNCC2)n1`, the inhibition is 0% [middle of 4 runs] in experiment [1]; 4% (2×) and 5% and 3% in experiment [2]; -4% and -5% in experiment [3]; 1% [middle of 4 runs] in experiment [4].
Take `Clc1ccc(-c2nn3ncccc3c2-c2ccnc(Nc3ccccc3)n2)cc1`: the inhibition is -2% and -3% in experiment [1]; 50% in experiment [2]; 0% and 1% in experiment [4]; -9% in experiment [5].

Values taken from ChEMBL document CHEMBL2007661, “Compounds: GSK PKIS; Assays: UNC Frye lab” (2012).
